Assays:
[1] = Cytotoxicity against rat L6 cells assessed as reduction in cell viability after 70 hrs by Alamar blue assay; assay type: toxicity
[2] = tested on: Trypanosoma brucei rhodesiense; experiment: Antitrypanosomal activity against bloodstream form of Trypanosoma brucei rhodesiense STIB900 after 70 hrs by Alamar blue assay; assay type: functional; conditions: STIB900, 70 h
[3] = Binding affinity to poly(dA-dT)n DNA (unknown origin) assessed as change in melting temperature at 0.3 molar ratio of compound:DNA by spectrophotometric analysis
[4] = Selectivity index, ratio OF IC50 for rat L6 cells to IC50 for bloodstream form of Trypanosoma brucei rhodesiense STIB900; assay type: functional

IC50 [2] | ΔTm [3] | SMILES | IC50 at 70 h [1] | Ratio IC50 [4]
31 nM | 2.5 °C | CCCn1c(-c2ccc(C(=N)N)cc2)nc2cc(C(=N)N)ccc21 | > 137000 nM | >4419
64 nM | 5.5 °C | CCn1c(-c2ccc(C(=N)N)cc2)nc2cc(C(=N)N)ccc21 | > 207000 nM | >3234
15 nM | 8 °C | Cn1c(-c2ccc(C(=N)N)cc2)nc2cc(C(=N)N)ccc21 | > 169000 nM | >11266

Second part, the molecule before the results:

SMILES | IC50 [2] | ΔTm [3] | IC50 at 70 h [1] | Ratio IC50 [4]
N=C(N)c1ccc(-c2nc3ccc(C(=N)N)cc3n2O)cc1 | 8430 nM | 1.1 °C | > 210000 nM | >25
N=C(N)c1ccc2nc(-c3ccc(C(=N)N)o3)[nH]c2c1 | 48 nM | 10.1 °C | 150000 nM | 3229
N=C(N)c1ccc(-c2nc3cc(C(=N)N)ccc3n2C2CCCCC2)cc1 | 529 nM | 2 °C | > 162000 nM | >306
c1cc2nc(-c3ccc(C4=NCCN4)s3)[nH]c2cc1C1=NCCN1 | 67 nM | 26 °C | 129000 nM | 1925
N=C(N)c1ccc2nc(-c3ccc(C(=N)N)s3)[nH]c2c1 | 19 nM | 25.2 °C | 26700 nM | 1405
N=C(N)c1ccc(-c2nc3cc(C(=N)N)ccc3[nH]2)cc1 | 31 nM | 24.7 °C | 26300 nM | 848
N=C(N)c1ccc(-c2cc3ccc(C(=N)N)cc3[nH]2)cc1 [DAPI] |  | > 27 °C | 860 nM | 48
